Laboratory results as given in US7074807B2, “Compositions and methods for inducing cell death” (Georgetown University, priority 1998, dated 2006).

What was measured:
PC-3 cells = test: Apoptosis assay (annexin V-FITC/propidium iodide flow cytometry), serum-free; conditions: 10 mM, 2 h, PC-3
Procedure: (§1) FIGS. (7A1–7A3), (7B1–7B2), (7C1–7C3), (7D1–7D2), (7E1–7E3), (7F1–7F2). […] Cells were grown in serum-free medium overnight in T-25 flasks and treated with tempol (10 mM) or tempo (10 mM) for various times, trypsinized, and then resuspended in 200 ul 1× binding buffer as described in experimental procedures. The cell suspension was double-stained with annexin V-FITC and propidium iodide and analyzed by flow cytometry. Background signal was determined by comparison with double-stained, single-stained, or unstained control cells. (7A1–7A3), (7C1–7C3), and (7E1–7E3) are cytograms showing a relative distribution of viable (V), apoptotic (A), and necrotic (N) cells at 2 h following tempol or tempo treatment of MDA-MB 231 cells (A), PCI-04A cells (C), and PC-3 cells (E). (7B1–7B3), (7D1–7D2), and (7F1–7F2) are time course analyses of MDA-MB 231 cells (B), PCT-04A cells (D), and PC-3 cells (F). 100,000 cells were analyzed at each time point in triplicate (B) or quadruplicate (D and F). Solid bars, 1% ethanol, striped bars, 10 mM tempol, empty bars, 10 mM tempo. […] Data shown are representative from three to four independent experiments. (7B1–7B2), Time course analysis of MDA-MB 231 cells undergoing apoptosis (annexin V-FITC staining) (7B1), or necrosis (propidium iodide staining) (7B2). Values shown are mean±s.d. of triplicate determinations per time point in each treatment category, and representative of three to four independent experiments. […] (7D1–7D2), Time course analysis of PCI-04A cells undergoing apoptosis (annexin V-FITC staining) (7D1), or necrosis (propidium iodide staining) (7D2). Values shown are mean±s.d. of quadruplicate determinations per time point in each treatment category. […] (7F1–7F2), Time course analysis of PC-3 cells undergoing apoptosis (annexin V-FITC staining) (7F1), or necrosis (propidium iodide staining) (7F2). Values shown are mean±s.d. of quadruplicate determinations per time point in each treatment category. Control/C, cells treated with 1% ethanol for 2 h.
Apoptosis Assay—ApoAlert Annexin V apoptosis detection system (Clontech Lab Inc., Palo Alto, Calif.) was used to measure the relative distribution of apoptotic and necrotic cells. Briefly, cells were seeded at a density of 1×10^6 cells per 25 cm^2 tissue culture flask in medium containing 10% FBS overnight, followed by washing twice in serum-free medium. Cells were maintained overnight in serum-free medium and exposed to tempol (10 mM) or tempo (10 mM) for various times. […] The intensity of the dye uptake by cells was detected using FACStar plus Flow Cytometer (Becton Dickerson, Lincoln Park, N.J.), and data were analyzed using Reproman True Facts software (Seattle, Wash.). […]

ERK1 = ERK1 activity (MBP phosphorylation of ERK1 immunoprecipitates); type: cell-based, human; conditions: 10 mM, 2 h, MDA-MB 231 cells
Procedure: FIGS. 4A, 4B. Tempol stimulates ERK1 activity. […] WCL (1 mg) were immunoprecipitated with agarose-conjugated anti-ERK1 antibody, and in vitro MBP phosphorylation assay was performed as described in experimental procedures. The incorporation of γ^32P into MBP was determined in a filter binding assay 4A. In other independent experiments, the reaction products were electrophoresed on 15% SDS-PAGE and MBP (at ˜18 kDa) was visualized by autoradiography 4B. Cont/Control, cells grown overnight in serum-free medium, and treated with 1% ethanol for 2 h.
ERK and SAPK/JNK Activities—Whole cell lysates prepared as described above were immunoprecipitated (1 mg) with an agarose conjugated anti-ERK1 antibody or an agarose conjugated anti-JNK1 antibody for 2 h at 4° C. with constant agitation. The immune-complexes were washed 3 times in lysis buffer and once in KBB as mentioned earlier. ERK or JNK activity assay was carried out according to manufacturer's procedures (UBI). […] The radioactive filters were washed and counted as described above. […] The radiolabeled GST-cJun fusion protein was detected by autoradiography.

MDA-MB 231 cells = test: Apoptosis assay (annexin V-FITC/propidium iodide flow cytometry); conditions: 10 mM, MDA-MB 231; for apoptosis/necrosis, time course analysis: up to 3 h
Procedure: as §1
Apoptosis Assay—ApoAlert Annexin V apoptosis detection system (Clontech Lab Inc., Palo Alto, Calif.) was used to measure the relative distribution of apoptotic and necrotic cells. Briefly, cells were seeded at a density of 1×10^6 cells per 25 cm^2 tissue culture flask in medium containing 10% FBS overnight, followed by washing twice in serum-free medium. Cells were maintained overnight in serum-free medium and exposed to tempol (10 mM) or tempo (10 mM) for various times. This was followed by rinsing twice with serum-free medium prior to trypsinization, dilution in two volumes of serum-free medium, and centrifugation at 10,000× g. The cell pellet was washed once with PBS and resuspended in 200 ul of 1× binding buffer. The cell suspension was double-labeled with fluorescein isothiocyanate (FITC)-labeled annexin V (10 ul) and propidium iodide (PI) (10 ul) according to the manufacturer's instructions. Unlabeled cells or untreated cells labeled with either FITC-annexin V or PI, or double-labeled served as internal controls for the background signal. The intensity of the dye uptake by cells was detected using FACStar plus Flow Cytometer (Becton Dickerson, Lincoln Park, N.J.), and data were analyzed using Reproman True Facts software (Seattle, Wash.). Viable cells were FITC−/PI−, apoptotic cells were FITC+/PI−, and necrotic cells were FITC+/PI+.

## CC1(C)CCCC(C)(C)N1[O] [tempo, 2,2,6,6-tetramethylpiperidine-N-oxyl]
PC-3 cells
  apoptotic cells (A): 2.57%
  viable cells (V): 10.76%
ERK1
  increase in the enzymatic activity of ERK1: no change in ERK1 activity
MDA-MB 231 cells; 2 h
  apoptotic cells (A): 52.42%
  viable cells (V): 35.83%
MDA-MB 231 cells
  apoptosis/necrosis, time course analysis: steady increase in the number of apoptotic cells for upto 2 h, followed by a considerable increase in the number of necrotic cells by 3 h

## CC1(C)CC(O)CC(C)(C)N1[O] [tempol, 4-hydroxy-tempo, reference compound]
PC-3 cells
  apoptotic cells (A): 1.20%
ERK1
  increase in the enzymatic activity of ERK1: Approximately 3 fold
MDA-MB 231 cells; 2 h
  apoptotic cells (A): 6.32%
MDA-MB 231 cells
  apoptosis/necrosis, time course analysis: did not induce apoptosis or necrosis
